{
  "source": "patent US10328062B2",
  "about": "“Biomarkers and use of MET inhibitor for treatment of cancer” (AMGEN, INC., priority 2014, dated 2019)",
  "key": {"[1]": {"system": "MET signaling (phospho-MET, phospho-Gab1, phospho-AKT, phospho-ERK) in MKN45, SNU-620 and SNU-5", "assay": "Immunoblot analysis of PI3K and MAPK signaling pathways", "format": "cell-based, Human", "details": "100 nM, 2 hours", "method": "Cells were seeded in 10 cm dishes at varying densities and allowed to adhere by incubating at 37° C. and 5% CO2 overnight. […] Cells were harvested in 250 μL lysis buffer containing protease and phosphatase inhibitors. For suspension cell lines, cells were pelleted prior to lysis buffer addition. Protein concentrations for individual lysates were measured using a BCA protein assay. 25 μg of protein lysate per sample was resolved on Life Technologies (Carlsbad, Calif.) NuPAGE Bis-Tris gels per manufacturer's. Samples were transferred to nitrocellulose membranes for Western blot analysis. Membranes were blocked in 5% milk prepared in TBST for 1 hour at room temperature. Total and phospho-specific antibodies for specified endpoints were used at 1:1000 dilutions in 5% milk/TBST (total) or 5% BSA/TBST (phospho). Membranes were incubated in the presence of appropriate primary antibody overnight at 4° C. Secondary anti-species-IgG HRP conjugated antibodies were diluted 1:5000 in 5% milk/TBST and incubated in the presence of membranes for 1 hour at room temperature. Membranes were exposed to Thermo Scientific (Waltham, Mass.) Super Signal PICO West ECL detection reagent per manufacturer's recommended protocol and exposed to film to document signal.\nAntibodies detecting total and phospho-MET (Y1234/1235), phospho-Gab1 (Y627), total and phospho-AKT (S473), total and phospho-ERK (T202/Y204), cleaved caspase-3, and cleaved PARP were purchased from Cell Signaling Technologies (Beverly, Mass.). The total β-actin antibody was purchased from Thermo Scientific (Waltham, Mass.). Both secondary anti-rabbit and anti-mouse IgG-HRP conjugated antibodies were purchased from Thermo Scientific (Waltham, Mass.).\nSubsequent lysates were analyzed by SDS-PAGE and immunoblot using antibodies detecting total and phospho-MET (Y1234/[…]), phospho-Gab1 (Y627), total and phospho-AKT (S473), and total and phospho-ERK 1/2 (T202/Y204)."}, "[2]": {"system": "human HCC cell lines", "assay": "HCC cell proliferation assay (CellTiter-Glo, 72 h)", "format": "cell-based", "method": "All human HCC cell lines were purchased from the American Type Culture Collection (ATCC), Japanese Collection of Research Bioresources (JCRB), Korean Cell line Bank (KCLB), Shanghai Institutes of Biological Sciences (SIBS), Zhongshan Hospital Fudan University (ZHFU), and routinely cultured in 96-well plates in ATCC's recommended growth media in the temperature of 37° C., 5% CO2 and 95% humidity. […] Luminescence was measured with a PerkinElmer EnVision® plate reader. Data will not be normalized to a control compound, rather POC (percent of control). POC=(compound treated signal/DMSO treated signal)*100. POC values were processed with the software of GraphPad Prism version 5 to calculate the absolute IC50. Time 0 (T0) reported as broken line on dose response curves were shown in the curve fitting as the percent of the net T3 DMSO control.\nThe fluorescence in situ hybridization (FISH) analysis and immunohistochemistry (IHC) staining were used to confirm c-MET amplification and high protein expression. The six sensitive and non-sensitive cell lines were selected, including MHCC97H, HCCLM3, JHH-4, JHH-5, SNU-398 and Hep3B. MHCC97H and HCCLM3 cell lines also had high levels of total MET with strong membrane staining (IHC 3+) and MET gene amplification (MET/CEP7>2.0), which were identified as Met-positive HCC. […]"}, "[3]": {"assay": "Phase 1 Study 20101132 preliminary PK analysis", "details": "human, in vivo", "method": "Safety is assessed according to Common Terminology Criteria for Adverse Events (CTCAE) v4.0 criteria and the DLT (dose limiting toxicity) window is 28 days. Dose escalation is proceeding with a modified 3+3+3 design, which defines the MTD (maximum tolerated dose) to have been exceeded when ≥3 subjects in a cohort experience a DLT.\nDose escalation consists of up to 8 cohorts of 3 to 9 evaluable subjects each. Initially, up to 4 subjects may enroll into a cohort. […] At least 6 subjects will be treated at the MTD. An expansion cohort of up to 20 subjects at the MTD (determined in the dose escalation portion) will be considered to obtain further safety, PK, and efficacy data."}, "[4]": {"system": "SNU620", "assay": "Flow cytometry cell cycle analysis", "format": "cell-based, Human", "details": "SNU 620; dose titration, 24 hours", "method": "(§1) Bromodeoxyuridine (BrdU) labeling reagent was added to cells for the final two hours of compound treatment. Cells were then washed with PBS and treated with trypsin to release from the bottom of the plate. Cells were washed and fixed in 90% methanol at −20° C. overnight. Cells were then washed and treated with 2N HCl and 0.5% triton X-100 to denature the DNA, followed by a wash and staining with anti-BrdU Alexa-647 and anti-Cleaved-Caspase-3 FITC antibodies. Finally cells were subjected to RNase treatment and propidium iodide staining. Cells were then analyzed on an LSRII flow cytometer.\n(§2) The anti-BrdU Alexa-647 antibody was purchased from Invitrogen (Carlsbad, Calif.). The anti-cleaved-caspase-3 FITC antibody was purchased from BD Pharmingen (San Jose, Calif.).\n(§3) Flow cytometry cell cycle analysis of MET amplified gastric cancer cell line MKN-45 is represented in FIG. 6. […] BrdU labeling was performed during the final 2 hours of compound treatment. Cells were then harvested, fixed, permeabilized and stained with BrdU and caspase-3 antibodies, followed by treatment with RNase and propidium iodide. Cells were then analyzed by flow cytometry to document effects on the cell cycle. […] Flow cytometry cell cycle analysis of MET amplified gastric cancer cell line SNU620 are represented in FIG. 6B. SNU 620 cells were treated as described above. […] Subsequent lysates were analyzed by SDS-PAGE and immunoblot using antibodies detecting cleaved PARP, cleaved caspase-3 and β-actin."}, "[5]": {"system": "MKN-45", "assay": "Flow cytometry cell cycle analysis", "format": "cell-based, Human", "details": "dose titration, 24 hours", "method": "as §1, §2, §3"}, "[6]": {"assay": "28-day rat toxicology study", "details": "in vivo"}},
  "note": "Like-named read-outs stand apart in the source and are kept apart here.",
  "data": [
    {"smiles": "COCCOc1cnc2ccn([C@H](C)c3nnc4c(F)cc(-c5cnn(C)c5)cn34)c(=O)c2c1", "note": "[Compound M, 6-{(1R)-1-[8-fluoro-6-(1-methyl-1H-pyrazol-4-yl)[1,2,4]triazolo[4,3-a]pyridin-3-yl]ethyl}-3-(2-methoxyethoxy)-1,6-naphthyridin-5(6H)-one]", "values": [
      {"measurement": "Phosphorylation of Gab1 (Y627)", "setting": "[1]", "value": "inhibited"},
      {"measurement": "Phosphorylation of MET (Y1234/1235)", "setting": "[1]", "value": "inhibited"},
      {"measurement": "phospho-AKT (S473), PI3K pathway", "setting": "[1]", "value": "reduction"},
      {"measurement": "phospho-ERK (T202/Y204), MAPK pathway", "setting": "[1]", "value": "reduction"},
      {"measurement": "drug sensitivity", "setting": "[2]; HCC cell lines with total c-MET IHC 2+, 1+ or 0", "value": "did not show dramatic drug sensitivity"},
      {"measurement": "response to Compound M", "setting": "[2]; Met-positive HCC (MHCC97H, HCCLM3: IHC 3+, MET/CEP7>2.0)", "value": "significant and favorable response"},
      {"measurement": "half-life", "setting": "[3]; oral, 43 subjects, once daily doses of 25 to 400 mg, tablet formulation, read-out: mean estimates of T1/2,z", "value": "4.6 to 7.4", "unit": "h"},
      {"measurement": "concentration at 28 days", "setting": "[3]; oral, cohort 3 (100 mg) after 28 days of dosing, read-out: human mean trough concentration", "value": 131, "unit": "ng/mL"},
      {"measurement": "half-life", "setting": "[3]; 24 subjects, daily oral doses of up to 200 mg, as of 20 Aug. 2012, read-out: Mean estimates of elimination half-life", "value": "4.6 to 6.9", "unit": "h"},
      {"measurement": "subG1/Caspase-3+ cells (cell killing)", "setting": "[4]", "value": "robust induction"},
      {"measurement": "S-phase positive cells (BrdU+)", "setting": "[5]", "value": "corresponding reduction"},
      {"measurement": "percentage of cells in the G1 phase of the cell cycle", "setting": "[5]", "value": "dose dependent increase"},
      {"measurement": "AUC(0-t)", "setting": "[6]", "value": 82400, "unit": "ng·h/mL"},
      {"measurement": "Cmax", "setting": "[6]", "value": 12300, "unit": "ng/mL"}
    ]}
  ]
}
